Source: the supplement of paper PMC10307832

Assays:
Experiment in all cases: relative viability (nuclei count vs DMSO), 5 days (fraction); higher = more cells survive
Zosuquidar + Alpelisib = compound: O[C@@H](COc1cccc2ncccc12)CN1CCN([C@@H]2c3ccccc3[C@@H]3[C@H](c4ccccc42)C3(F)F)CC1 [Zosuquidar] + Cc1nc(NC(=O)N2CCC[C@H]2C(N)=O)sc1-c1ccnc(C(C)(C)C(F)(F)F)c1 [Alpelisib] (partner 2 µM)
Summary of the method: (§1)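 After 5 days of treatment, lung cancer cells in 1536-well plates were fixed and stained in a single step (final 0.05% Triton X-100, 1% formaldehyde, 1 ug/ml Hoechst) and their nuclei counted on 4× images. Treatment had been applied by pin tool the day after seeding as one drug alone or as a fixed anchor-drug dose with five library-drug doses (not always all listed) in √10 steps. Relative viability is the nuclei count of treated wells divided by that of vehicle wells, and values are medians of duplicate plates.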

Zosuquidar + OSI-027 = compound: O[C@@H](COc1cccc2ncccc12)CN1CCN([C@@H]2c3ccccc3[C@@H]3[C@H](c4ccccc42)C3(F)F)CC1 [Zosuquidar] + COc1cccc2cc(-c3nc([C@H]4CC[C@H](C(=O)O)CC4)n4ncnc(N)c34)[nH]c12 [OSI-027] (partner 0.5 µM)
Summary of the method: as §1

Zosuquidar + Crizotinib = compound: O[C@@H](COc1cccc2ncccc12)CN1CCN([C@@H]2c3ccccc3[C@@H]3[C@H](c4ccccc42)C3(F)F)CC1 [Zosuquidar] + C[C@@H](Oc1cc(-c2cnn(C3CCNCC3)c2)cnc1N)c1c(Cl)ccc(F)c1Cl [Crizotinib] (partner 1 µM)
Summary of the method: as §1

Zosuquidar + Foretinib = compound: O[C@@H](COc1cccc2ncccc12)CN1CCN([C@@H]2c3ccccc3[C@@H]3[C@H](c4ccccc42)C3(F)F)CC1 [Zosuquidar] + COc1cc2c(Oc3ccc(NC(=O)C4(C(=O)Nc5ccc(F)cc5)CC4)cc3F)ccnc2cc1OCCCN1CCOCC1 [Foretinib] (partner 0.25 µM)
Summary of the method: as §1

Cell Line	relative viability (Zosuquidar + Alpelisib; first compound 0.01 µM)	relative viability (Zosuquidar + Alpelisib; first compound 0.03162 µM)	relative viability (Zosuquidar + Alpelisib; first compound 0.1 µM)	relative viability (Zosuquidar + Alpelisib; first compound 0.3162 µM)	relative viability (Zosuquidar + Alpelisib; first compound 1 µM)	relative viability (Zosuquidar + OSI-027; first compound 0.01 µM)	relative viability (Zosuquidar + OSI-027; first compound 0.03162 µM)	relative viability (Zosuquidar + OSI-027; first compound 0.1 µM)	relative viability (Zosuquidar + OSI-027; first compound 0.3162 µM)	relative viability (Zosuquidar + OSI-027; first compound 1 µM)	relative viability (Zosuquidar + Crizotinib; first compound 0.01 µM)	relative viability (Zosuquidar + Crizotinib; first compound 0.03162 µM)	relative viability (Zosuquidar + Crizotinib; first compound 0.1 µM)	relative viability (Zosuquidar + Crizotinib; first compound 0.3162 µM)	relative viability (Zosuquidar + Crizotinib; first compound 1 µM)	relative viability (Zosuquidar + Foretinib; first compound 0.01 µM)	relative viability (Zosuquidar + Foretinib; first compound 0.03162 µM)	relative viability (Zosuquidar + Foretinib; first compound 0.1 µM)	relative viability (Zosuquidar + Foretinib; first compound 0.3162 µM)	relative viability (Zosuquidar + Foretinib; first compound 1 µM)
NCI-H23	0.669	0.718	0.728	0.704	0.687	0.644	0.636	0.525	0.705	0.641	0.467	0.495	0.512	0.534	0.478	0.979	0.875	1.02	1.04	1.09
NCI-H322M	0.836	0.739	0.648	0.859	0.728	0.529	0.67	0.485	0.66	0.575	0.896	0.929	0.861	0.739	0.91	0.961	1.19	0.723	0.983	0.972
NCI-H358	0.914	0.833	0.832	0.839	0.893	0.779	0.769	0.618	0.736	0.734	0.602	0.497	0.807	0.497	0.532	0.654	0.615	0.719	0.598	0.702
NCI-H441	0.998	0.766	0.732		0.591	0.667	0.666	0.519	0.828	0.585	0.681	0.788	0.689		0.742	1.06	1.01	0.866	1.03	1.2
NCI-H460	0.398	0.526	0.539	0.551	0.529	0.674	0.725	0.522	0.788	0.694	0.813	0.906	1.01	0.916	1.02	0.922	0.987	0.987	0.969	0.952
NCI-H520	0.941	0.784	0.778	0.981	0.837	0.266	0.294		0.237	0.236	0.727	0.68	0.737	0.834	0.828	0.882	0.849		0.619	0.685
NCI-H596	0.467	0.512	0.502	0.589	0.591	0.714		0.724	1.01	0.689	1.03	0.898	1.01	1.06	1.02	0.805		0.788	0.939	0.868
NCI-H647	1.25	1.12	1.28	1.11	1.39	0.64	0.63	0.552	0.886	0.723	1.03	1.09	1.03	1.14	1.1	1.21	1.13	1.32	1.27	1.02
